Assay [1] addresses Receptor-type tyrosine-protein kinase FLT3 (Homo sapiens, UniProt P36888, ITD). Nature of the assay: Inhibition of recombinant human C-terminal FLT3 ITD mutant (571 to 993 residues) after 90 mins by mobility shift assay.
Another assay deals with MV4-11. Nature of the assay: Growth inhibition of human MV4-11 cells after 3 days by Alamar blue assay. The assay is classed as functional. To be noted: MV4-11, 72 h. Background: Resazurin is reduced to fluorescent resorufin, in cell work by metabolically active cells.
Assay [2] concerns the target Tyrosine-protein kinase HCK (Homo sapiens, UniProt P08631).
Description: Inhibition of recombinant human HCK SH3-SH2-KD (75 to 526 residues) after 20 mins by mobility shift assay

Each structure is given as a SMILES string. pIC50: −log10 of the molar value.

Receptor-type tyrosine-protein kinase FLT3, sequence (P36888 whole entry, looked up, stated change not applied, the tested form may be a part): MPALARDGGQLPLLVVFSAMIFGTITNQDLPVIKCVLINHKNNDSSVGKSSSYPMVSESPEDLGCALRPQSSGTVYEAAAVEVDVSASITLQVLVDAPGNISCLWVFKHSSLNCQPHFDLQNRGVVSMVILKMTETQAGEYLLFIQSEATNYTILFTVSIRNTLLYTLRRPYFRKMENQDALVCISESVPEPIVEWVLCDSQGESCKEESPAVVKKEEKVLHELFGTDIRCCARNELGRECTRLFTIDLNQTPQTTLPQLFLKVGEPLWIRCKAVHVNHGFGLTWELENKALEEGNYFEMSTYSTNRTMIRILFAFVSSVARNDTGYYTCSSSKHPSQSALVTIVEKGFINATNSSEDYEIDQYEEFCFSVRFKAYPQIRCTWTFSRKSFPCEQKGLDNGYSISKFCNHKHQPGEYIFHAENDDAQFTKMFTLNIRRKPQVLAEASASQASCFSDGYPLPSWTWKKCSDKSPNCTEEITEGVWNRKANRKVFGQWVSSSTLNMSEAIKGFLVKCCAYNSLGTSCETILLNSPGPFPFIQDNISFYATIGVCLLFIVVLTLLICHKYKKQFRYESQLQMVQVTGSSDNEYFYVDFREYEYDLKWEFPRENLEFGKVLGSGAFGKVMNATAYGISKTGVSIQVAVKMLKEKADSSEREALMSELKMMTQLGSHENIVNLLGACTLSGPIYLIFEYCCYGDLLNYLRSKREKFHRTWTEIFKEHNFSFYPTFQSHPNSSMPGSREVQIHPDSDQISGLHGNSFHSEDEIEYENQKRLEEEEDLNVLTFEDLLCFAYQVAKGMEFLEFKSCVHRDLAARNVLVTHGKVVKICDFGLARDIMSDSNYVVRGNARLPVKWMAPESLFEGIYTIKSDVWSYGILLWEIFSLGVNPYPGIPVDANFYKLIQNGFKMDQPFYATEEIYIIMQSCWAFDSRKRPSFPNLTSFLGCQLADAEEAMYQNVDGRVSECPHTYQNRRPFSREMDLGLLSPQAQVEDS
Tyrosine-protein kinase HCK, sequence (P08631 whole entry): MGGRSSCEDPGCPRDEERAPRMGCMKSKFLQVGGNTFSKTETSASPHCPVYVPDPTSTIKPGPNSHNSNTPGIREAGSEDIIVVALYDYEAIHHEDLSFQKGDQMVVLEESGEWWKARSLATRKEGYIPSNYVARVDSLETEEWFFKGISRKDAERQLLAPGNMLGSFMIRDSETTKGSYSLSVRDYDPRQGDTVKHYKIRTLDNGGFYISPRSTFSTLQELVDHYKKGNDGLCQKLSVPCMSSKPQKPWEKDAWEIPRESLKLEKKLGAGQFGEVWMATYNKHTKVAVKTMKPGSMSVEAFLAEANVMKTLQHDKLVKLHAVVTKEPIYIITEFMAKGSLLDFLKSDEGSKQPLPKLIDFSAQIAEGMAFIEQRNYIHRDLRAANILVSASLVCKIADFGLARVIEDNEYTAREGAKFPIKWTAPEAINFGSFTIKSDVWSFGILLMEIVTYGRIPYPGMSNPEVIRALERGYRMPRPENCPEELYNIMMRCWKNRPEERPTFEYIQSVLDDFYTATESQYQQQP

The pIC50 is −log10 of the IC50, conventionally taken in molar units. Usually GI50 stands for the concentration that inhibits growth by half. Low values mean more potent growth inhibition, high ones less potent growth inhibition. Consider `Nc1ncnc2c1c(-c1ccc(Oc3ccccc3)cc1)cn2[C@H]1CC[C@H](NCC(=O)O)CC1`, for which the values for the pIC50 in assay [1] and in assay [2] were 7.55 and 8.43, respectively. Halving of growth in the assay on MV4-11 (GI50) required 98 nM.

Turning to `CC(C)C[C@H](N[C@H]1CC[C@H](n2cc(-c3ccc(Oc4ccccc4)cc3)c3c(N)ncnc32)CC1)C(=O)O`, the pIC50 in assay [1] is 7.85; in assay [2], 8.36. This compound also displayed a GI50 with MV4-11 of 21 nM.

For the compound `Nc1ncnc2c1c(-c1ccc(Oc3ccccc3)cc1)cn2[C@H]1CC[C@@H](NCC(=O)O)CC1`, the pIC50 in assay [1] is 7.49; in assay [2], 7.92.

On to `Nc1ncnc2c1c(-c1ccc(Oc3ccccc3)cc1)cn2[C@H]1CC[C@H](N[C@H]2CCOC2=O)CC1`, for which the pIC50 in assay [1] was 7.60; in assay [2], 7.55.

Regarding `Nc1ncnc2c1c(-c1ccc(Oc3ccccc3)cc1)cn2[C@H]1CC[C@@H](N[C@H](CO)C(=O)O)CC1`, the pIC50 is 7.92 in assay [1] and 7.64 in assay [2].

For the compound `Nc1ncnc2c1c(-c1ccc(Oc3ccccc3)cc1)cn2[C@H]1CC[C@H](NCCC(=O)O)CC1`, the pIC50 was 7.48 in assay [1] and 7.82 in assay [2].

As for `Nc1ncnc2c1c(-c1ccc(Oc3ccccc3)cc1)cn2[C@H]1CC[C@@H](N[C@@H](CO)C(=O)O)CC1`, the figures for the pIC50 in assay [1] and in assay [2] were 7.89 and 7.40, respectively.

On to `Nc1ncnc2c1c(-c1ccc(Oc3ccccc3)cc1)cn2[C@H]1CC[C@@H](N[C@@H](Cc2ccccc2)C(=O)O)CC1`, for which the pIC50 in assay [1] is 8.51; in assay [2], 7.13.

Turning to `Nc1ncnc2c1c(-c1ccc(Oc3ccccc3)cc1)cn2[C@H]1CC[C@H](N[C@H](Cc2ccccc2)C(=O)O)CC1`, the figures for the pIC50 in assay [1] and in assay [2] were 7.57 and 7.62, respectively.

In the case of `C[C@@H](N[C@H]1CC[C@@H](n2cc(-c3ccc(Oc4ccccc4)cc3)c3c(N)ncnc32)CC1)C(=O)O`, the pIC50 in assay [1] is 7.64; in assay [2], 7.44.

As for `C[C@H](N[C@H]1CC[C@H](n2cc(-c3ccc(Oc4ccccc4)cc3)c3c(N)ncnc32)CC1)C(=O)O`, the pIC50 in assay [1] was 7.41; in assay [2] it was 8.16.

For `Nc1ncnc2c1c(-c1ccc(Oc3ccccc3)cc1)cn2[C@H]1CC[C@H](N2CCC[C@H]2C(=O)O)CC1`, the pIC50 is 7.59 in assay [1] and 7.28 in assay [2].

Turning to `CC(C)CCN[C@H]1CC[C@H](n2cc(-c3ccc(Oc4ccccc4)cc3)c3c(N)ncnc32)CC1`, the pIC50 in assay [1] was 7.25; in assay [2], 6.65.

Take `Nc1ncnc2c1c(-c1ccc(Oc3ccccc3)cc1)cn2[C@H]1CC[C@@H](N[C@H]2CCOC2=O)CC1`: the negative-log IC50 (pIC50) is 7.57 in assay [1] and 8.27 in assay [2]. In the assay on MV4-11, this compound came in with a GI50 of 29 nM.

Regarding `Nc1ncnc2c1c(-c1ccc(Oc3ccccc3)cc1)cn2[C@H]1CC[C@H](N[C@@H](CO)C(=O)O)CC1`, the pIC50 in assay [1] is 7.74; in assay [2], 8.74. Also, the GI50 in the assay on MV4-11 was greater than 100 nM.

Regarding `CC(C)C[C@H](N[C@H]1CC[C@@H](n2cc(-c3ccc(Oc4ccccc4)cc3)c3c(N)ncnc32)CC1)C(=O)O`, the pIC50 in assay [1] was 7.64; in assay [2], 6.98.

`CC(C)C[C@@H](N[C@H]1CC[C@H](n2cc(-c3ccc(Oc4ccccc4)cc3)c3c(N)ncnc32)CC1)C(=O)O`: the pIC50 in assay [1] was 7.28; in assay [2], 7.57.

In the case of `C[C@H](N[C@H]1CC[C@@H](n2cc(-c3ccc(Oc4ccccc4)cc3)c3c(N)ncnc32)CC1)C(=O)O`, the pIC50 in assay [1] is 7.70; in assay [2], 7.14.

In the case of `Nc1ncnc2c1c(-c1ccc(Oc3ccccc3)cc1)cn2[C@H]1CC[C@H](N[C@@H](Cc2ccc(O)cc2)C(=O)O)CC1`, the pIC50 in assay [1] is 7.55; in assay [2] it was 8.13.

In the case of `Nc1ncnc2c1c(-c1ccc(Oc3ccccc3)cc1)cn2[C@H]1CC[C@@H](N[C@H](Cc2ccccc2)C(=O)O)CC1`, the negative logarithm of the IC50 (pIC50) in assay [1] was 8.59; in assay [2], 7.74. The compound also returned a GI50 in the assay with MV4-11 of 26 nM.

With `Nc1ncnc2c1c(-c1ccc(Oc3ccccc3)cc1)cn2[C@H]1CC[C@H](N2CCC[C@@H]2C(=O)O)CC1`, the pIC50 is 6.90 in assay [1] and 6.70 in assay [2].

`Nc1ncnc2c1c(-c1ccc(Oc3ccccc3)cc1)cn2[C@H]1CC[C@@H](N2CCC[C@H]2C(=O)O)CC1`: the pIC50 in assay [1] is 7.70; in assay [2], 7.10.

Consider `CC(C)C[C@@H](N[C@H]1CC[C@@H](n2cc(-c3ccc(Oc4ccccc4)cc3)c3c(N)ncnc32)CC1)C(=O)O`, for which the pIC50 in assay [1] is 7.46; in assay [2], 6.86.

With `C[C@@H](N[C@H]1CC[C@H](n2cc(-c3ccc(Oc4ccccc4)cc3)c3c(N)ncnc32)CC1)C(=O)O`, the results for the pIC50 in assay [1] and in assay [2] were 7.41 and 7.44, respectively.

Turning to `Nc1ncnc2c1c(-c1ccc(Oc3ccccc3)cc1)cn2[C@H]1CC[C@H](N[C@H](Cc2ccc(O)cc2)C(=O)O)CC1`, the pIC50 in assay [1] is 7.96; in assay [2], 7.82.

`CC(C)CCN[C@H]1CC[C@@H](n2cc(-c3ccc(Oc4ccccc4)cc3)c3c(N)ncnc32)CC1`: the negative logarithm of the IC50 (pIC50) is 7.36 in assay [1] and 6.92 in assay [2].

In the case of `Nc1ncnc2c1c(-c1ccc(Oc3ccccc3)cc1)cn2[C@H]1CC[C@@H](N[C@@H](Cc2ccc(O)cc2)C(=O)O)CC1`, the pIC50 in assay [1] was 8.30; in assay [2], 7.41.

Take `Nc1ncnc2c1c(-c1ccc(Oc3ccccc3)cc1)cn2[C@H]1CC[C@H](N[C@H](CO)C(=O)O)CC1`: the figures for the pIC50 in assay [1] and in assay [2] were 7.77 and 8.20, respectively.

On to `Nc1ncnc2c1c(-c1ccc(Oc3ccccc3)cc1)cn2[C@H]1CC[C@H](N[C@@H](Cc2ccccc2)C(=O)O)CC1`, for which the pIC50 in assay [1] was 7.62; in assay [2], 8.12.

For `Nc1ncnc2c1c(-c1ccc(Oc3ccccc3)cc1)cn2[C@H]1CC[C@@H](N2CCC[C@@H]2C(=O)O)CC1`, the pIC50 in assay [1] was 7.80; in assay [2] it was 7.19.

Take `Nc1ncnc2c1c(-c1ccc(Oc3ccccc3)cc1)cn2[C@H]1CC[C@@H](N[C@H](Cc2ccc(O)cc2)C(=O)O)CC1`: the pIC50 in assay [1] was 8.30; in assay [2], 7.89. Further, the GI50 in the assay with MV4-11 turned out to be 18 nM.

As to `CN1CCN([C@H]2CC[C@H](n3cc(-c4ccc(Oc5ccccc5)cc4)c4c(N)ncnc43)CC2)CC1`, the GI50 in the assay on MV4-11 worked out at 40 nM. The compound also had a pIC50 in assay [2] of 9.40.

Source of the values: ChEMBL document CHEMBL4177609, “Identification of pyrrolo[2,3-d]pyrimidines as potent HCK and FLT3-ITD dual inhibitors” (Bioorg Med Chem Lett, 2017).
